Measured values published in US12479847B2 (DANA-FARBER CANCER INSTITUTE, INC., priority 2019, dated 2025).

Legend:
Test in all cases: KINOMEscan (ScanMAX) kinase profiling
Assay type in all cases: binding
[1] = target: T1, panel of 468 kinases (Homo sapiens, UniProt P35916); settings: FLT4; 1 μM; read-out: % control
T1 construct: purchased KINOMEscan (ScanMAX) service

[2] = target: T2, panel of 468 kinases (Homo sapiens, UniProt Q15139); settings: PRKD1; 1 μM; read-out: % control
T2 construct: purchased KINOMEscan (ScanMAX) service
T2 sequence (Q15139 1-912): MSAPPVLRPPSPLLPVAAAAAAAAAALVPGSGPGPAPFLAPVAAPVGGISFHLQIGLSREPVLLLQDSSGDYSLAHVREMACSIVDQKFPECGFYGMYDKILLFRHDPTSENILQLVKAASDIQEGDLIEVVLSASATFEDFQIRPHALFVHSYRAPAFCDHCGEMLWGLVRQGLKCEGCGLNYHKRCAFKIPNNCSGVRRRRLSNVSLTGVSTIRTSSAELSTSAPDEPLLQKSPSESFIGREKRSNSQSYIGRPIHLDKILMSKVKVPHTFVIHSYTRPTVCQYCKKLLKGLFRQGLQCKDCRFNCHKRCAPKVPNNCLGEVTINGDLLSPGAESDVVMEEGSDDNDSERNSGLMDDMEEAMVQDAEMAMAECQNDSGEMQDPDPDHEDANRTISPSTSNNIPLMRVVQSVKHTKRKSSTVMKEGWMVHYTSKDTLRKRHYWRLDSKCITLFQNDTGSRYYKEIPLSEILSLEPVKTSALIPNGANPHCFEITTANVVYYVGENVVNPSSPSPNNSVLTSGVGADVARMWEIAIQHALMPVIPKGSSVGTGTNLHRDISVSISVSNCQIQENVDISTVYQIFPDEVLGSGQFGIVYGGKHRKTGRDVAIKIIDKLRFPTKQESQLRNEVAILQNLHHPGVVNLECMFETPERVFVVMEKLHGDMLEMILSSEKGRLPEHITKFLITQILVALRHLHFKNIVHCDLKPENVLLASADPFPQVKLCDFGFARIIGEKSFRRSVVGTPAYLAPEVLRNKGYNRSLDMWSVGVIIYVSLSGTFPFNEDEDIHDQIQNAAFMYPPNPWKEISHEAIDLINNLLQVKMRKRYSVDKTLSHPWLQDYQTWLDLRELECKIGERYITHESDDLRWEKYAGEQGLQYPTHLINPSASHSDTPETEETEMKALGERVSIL

[3] = target: T3, panel of 468 kinases (Homo sapiens, UniProt Q16659); settings: ERK3; 1 μM; read-out: % control
T3 construct: purchased KINOMEscan (ScanMAX) service

[4] = target: T4, panel of 468 kinases (Homo sapiens, UniProt P00519, M351T); settings: ABL1(M351T)-phosphorylated; 1 μM; read-out: % control
T4 construct: purchased KINOMEscan (ScanMAX) service

[5] = target: T5, panel of 468 kinases (Homo sapiens, UniProt P36888, D835V); settings: FLT3(D835V); 1 μM; read-out: % control
T5 construct: purchased KINOMEscan (ScanMAX) service
T5 sequence (P36888 27-993 D835V): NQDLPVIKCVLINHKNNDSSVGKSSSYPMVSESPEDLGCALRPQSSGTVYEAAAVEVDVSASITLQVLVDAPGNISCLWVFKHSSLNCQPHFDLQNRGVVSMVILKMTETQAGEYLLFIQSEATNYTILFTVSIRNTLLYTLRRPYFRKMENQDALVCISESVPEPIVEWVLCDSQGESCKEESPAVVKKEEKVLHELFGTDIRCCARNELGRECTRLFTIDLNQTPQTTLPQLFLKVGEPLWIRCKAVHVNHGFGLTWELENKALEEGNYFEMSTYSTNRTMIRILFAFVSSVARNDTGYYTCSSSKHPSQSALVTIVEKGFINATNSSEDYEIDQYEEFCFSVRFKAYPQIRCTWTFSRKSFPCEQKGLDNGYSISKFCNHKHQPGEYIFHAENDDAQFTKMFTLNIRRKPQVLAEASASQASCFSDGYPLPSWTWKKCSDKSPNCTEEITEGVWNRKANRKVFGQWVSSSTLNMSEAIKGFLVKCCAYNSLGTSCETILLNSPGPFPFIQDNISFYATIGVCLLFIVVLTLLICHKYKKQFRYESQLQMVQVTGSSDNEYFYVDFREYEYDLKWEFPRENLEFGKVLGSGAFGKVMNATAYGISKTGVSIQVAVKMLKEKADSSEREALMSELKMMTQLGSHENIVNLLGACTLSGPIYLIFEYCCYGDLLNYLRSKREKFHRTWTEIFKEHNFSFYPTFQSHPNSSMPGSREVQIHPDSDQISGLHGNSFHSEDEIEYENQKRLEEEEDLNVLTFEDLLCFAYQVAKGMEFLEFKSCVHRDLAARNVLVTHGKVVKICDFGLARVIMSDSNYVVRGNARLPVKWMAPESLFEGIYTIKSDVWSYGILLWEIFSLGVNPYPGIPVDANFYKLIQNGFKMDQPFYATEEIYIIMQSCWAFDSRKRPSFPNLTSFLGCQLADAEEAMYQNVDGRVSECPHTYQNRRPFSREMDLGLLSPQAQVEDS

[6] = target: T6, panel of 468 kinases (Homo sapiens, UniProt Q9NWZ3); settings: IRAK4; 1 μM; read-out: % control
T6 construct: purchased KINOMEscan (ScanMAX) service
T6 sequence (Q9NWZ3 1-460): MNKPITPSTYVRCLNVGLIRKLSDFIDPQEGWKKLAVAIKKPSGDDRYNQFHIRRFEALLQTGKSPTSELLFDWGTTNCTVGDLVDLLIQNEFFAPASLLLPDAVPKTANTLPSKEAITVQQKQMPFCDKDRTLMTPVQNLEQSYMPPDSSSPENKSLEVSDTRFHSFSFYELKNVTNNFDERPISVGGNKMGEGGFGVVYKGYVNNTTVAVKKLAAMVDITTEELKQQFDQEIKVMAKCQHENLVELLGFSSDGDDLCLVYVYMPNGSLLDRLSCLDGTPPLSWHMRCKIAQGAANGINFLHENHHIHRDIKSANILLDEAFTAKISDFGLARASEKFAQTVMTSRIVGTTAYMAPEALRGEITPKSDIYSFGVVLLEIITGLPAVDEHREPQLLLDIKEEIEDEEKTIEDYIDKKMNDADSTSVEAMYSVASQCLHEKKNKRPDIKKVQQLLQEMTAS

T3 sequence (Q16659 whole entry): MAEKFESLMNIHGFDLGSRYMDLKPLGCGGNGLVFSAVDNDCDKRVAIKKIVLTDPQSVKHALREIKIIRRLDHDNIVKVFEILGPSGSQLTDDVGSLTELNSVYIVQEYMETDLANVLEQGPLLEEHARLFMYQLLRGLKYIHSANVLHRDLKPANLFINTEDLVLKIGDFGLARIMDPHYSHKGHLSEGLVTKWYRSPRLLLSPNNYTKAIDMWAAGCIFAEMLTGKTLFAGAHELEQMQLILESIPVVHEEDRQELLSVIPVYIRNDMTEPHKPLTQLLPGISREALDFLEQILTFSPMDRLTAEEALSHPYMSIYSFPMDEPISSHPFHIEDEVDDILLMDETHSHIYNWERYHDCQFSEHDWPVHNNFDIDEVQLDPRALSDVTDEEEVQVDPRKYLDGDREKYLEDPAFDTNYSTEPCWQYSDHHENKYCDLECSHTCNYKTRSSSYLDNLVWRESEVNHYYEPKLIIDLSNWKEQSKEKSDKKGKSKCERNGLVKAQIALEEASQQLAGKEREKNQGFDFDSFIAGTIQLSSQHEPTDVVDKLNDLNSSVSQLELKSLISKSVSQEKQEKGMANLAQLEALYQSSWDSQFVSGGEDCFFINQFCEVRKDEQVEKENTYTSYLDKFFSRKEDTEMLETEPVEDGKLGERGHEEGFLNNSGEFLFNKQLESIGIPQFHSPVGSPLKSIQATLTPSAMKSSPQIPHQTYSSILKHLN
T1 sequence (P35916 25-1363): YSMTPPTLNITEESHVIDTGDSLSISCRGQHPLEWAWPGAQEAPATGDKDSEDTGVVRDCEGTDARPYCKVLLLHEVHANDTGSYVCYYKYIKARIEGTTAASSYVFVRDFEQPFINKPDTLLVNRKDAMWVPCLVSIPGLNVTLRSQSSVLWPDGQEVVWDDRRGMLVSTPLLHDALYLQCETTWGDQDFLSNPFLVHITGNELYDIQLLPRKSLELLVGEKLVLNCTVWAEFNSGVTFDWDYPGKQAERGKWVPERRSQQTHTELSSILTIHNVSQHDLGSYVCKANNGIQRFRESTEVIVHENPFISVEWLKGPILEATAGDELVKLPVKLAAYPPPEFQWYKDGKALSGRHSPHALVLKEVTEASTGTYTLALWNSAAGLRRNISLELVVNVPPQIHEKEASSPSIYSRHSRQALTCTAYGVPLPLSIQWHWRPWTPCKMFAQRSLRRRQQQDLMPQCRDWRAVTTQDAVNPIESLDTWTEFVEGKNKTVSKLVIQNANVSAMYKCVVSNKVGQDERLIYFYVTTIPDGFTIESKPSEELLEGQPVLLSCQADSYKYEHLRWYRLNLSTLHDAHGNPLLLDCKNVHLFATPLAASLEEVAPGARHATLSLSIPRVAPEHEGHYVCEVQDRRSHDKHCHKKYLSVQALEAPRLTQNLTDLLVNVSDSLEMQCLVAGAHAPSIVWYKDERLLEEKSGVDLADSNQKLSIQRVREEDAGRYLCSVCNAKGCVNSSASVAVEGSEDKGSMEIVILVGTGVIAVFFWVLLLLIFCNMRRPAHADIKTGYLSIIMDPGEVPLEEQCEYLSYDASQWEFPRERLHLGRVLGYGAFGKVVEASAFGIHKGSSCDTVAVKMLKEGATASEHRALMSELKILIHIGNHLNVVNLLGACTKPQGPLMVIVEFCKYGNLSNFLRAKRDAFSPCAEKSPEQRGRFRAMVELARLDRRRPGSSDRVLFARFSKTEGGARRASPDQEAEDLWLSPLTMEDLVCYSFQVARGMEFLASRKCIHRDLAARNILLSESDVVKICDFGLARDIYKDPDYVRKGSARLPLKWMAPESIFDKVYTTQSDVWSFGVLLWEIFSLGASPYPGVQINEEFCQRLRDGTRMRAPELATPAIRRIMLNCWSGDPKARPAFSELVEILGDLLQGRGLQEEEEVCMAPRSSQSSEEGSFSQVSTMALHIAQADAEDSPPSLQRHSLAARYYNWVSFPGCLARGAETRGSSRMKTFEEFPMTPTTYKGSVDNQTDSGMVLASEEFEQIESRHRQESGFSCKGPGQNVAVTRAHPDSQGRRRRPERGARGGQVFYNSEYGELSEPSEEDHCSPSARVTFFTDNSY

Row | SMILES | remaining binding at 1 µM [1] [%] | remaining binding at 1 µM [2] [%] | remaining binding at 1 µM [3] [%] | remaining binding at 1 µM [4] [%] | remaining binding at 1 µM [5] [%] | remaining binding at 1 µM [6] [%]
1 | CNc1nc(Nc2ccc(S(=O)(=O)N3CCC(N4CCOCC4)CC3)cc2OC)nc2[nH]cc(Cl)c12 [Compound 12, 5-chloro-N2-(2-methoxy-4-((4-morpholinopiperidin-1-yl)sulfonyl)phenyl)-N4-methyl-7H-pyrrolo[2,3-d]pyrimidine-2,4-diamine] | 100 | 8.8 | 100 | 64 | 72 | 95
2 | CNc1nc(Nc2ccc(C(=O)N3CCC(N4CCOCC4)CC3)c3c2OCO3)nc2[nH]cc(Cl)c12 [Compound 75, (7-((5-chloro-4-(methylamino)-7H-pyrrolo[2,3-d]pyrimidin-2-yl)amino)benzo[d][1,3]dioxol-4-yl)(4-morpholinopiperidin-1-yl)methanone] | 100 | 7.3 | 91 | 59 | 1.8 | 82
3 | CNc1nc(Nc2ccc(P3(=O)CCN(C4CCOCC4)CC3)cc2OC)nc2[nH]cc(Cl)c12 [Compound 77, 4-(4-((5-chloro-4-(methylamino)-7H-pyrrolo[2,3-d]pyrimidin-2-yl)amino)-3-methoxyphenyl)-1-(tetrahydro-2H-pyran-4-yl)-1,4-azaphosphinane 4-oxide] | 100 | 7 | 99 | 70 | 9.7 | 98
